From patent US20040131581A1, “Novel synergistic antimicrobial compositions and methods” (SureCide Technologies, LLC, priority 2001, published 2004) come the findings set out here.

Data set [1] concerns Salmonella choleraesuis (strain 10708). Description: Growth of Salmonella in nutrient broth containing treated rice-hull litter, visual examination. The class given is cell-based. The note with it: for Growth of Salmonella upon litter treated with one or more treatment composition components: Example 4, 7 g litter treated, Tables 5A, 5B, 5C; for Growth of Salmonella upon litter treated with various concentrations of treatment composition: Example 6, litter of Example 4 re-tested, 24 hours at 37° C.; for Growth of Salmonella in the Presence of an Iodophore: Example 7, 7 g litter treated 30 minutes, 0.5 g litter, 24 hrs at 37° C. How it is done: . After exposing the litter to the antimicrobial composition, the preparations were filtered and the impregnated litter filtrates were dried and placed in separate culture tubes. Sterile nutrient broth (NB) was added to each tube and appropriate tubes were inoculated with 10^3 cfu/mL of Salmonella. All tubes were incubated overnight and examined visually. Visual interpretation results were confirmed by subculturing all culture tubes to plated media. […]
After soaking, the test preparations were removed from the litter material by vacuum filtration. The wet litter was spread on paper towels and allowed to dry between about 5 hours and overnight, followed by approximately 45 minutes exposure to desiccant.
Each of the treated litter samples was tested in triplicate for the ability to reduce or inhibit growth of an inoculated Salmonella culture. Three aliquots of litter (0.5 g each) from each of the four batches of treated litter (FeCl3/citrate, chitosan, FeCl3/citrate/chitosan, and water) were measured and placed in test tubes, to which 18 mL of microbial nutrient broth (Hardy Diagnostics, Santa Maria Calif.) was added. Control test tubes containing untreated litter (e) and no litter (f) were also prepared.
The tubes containing the treated litter were inoculated with 2 mL of a 10^4 cells/mL stock Salmonella solution (final concentration of 10^3 cells/mL). The inoculated tubes were incubated at 37° C. for 24 hours, then visually examined for positive cell growth. In addition, a sample from each test tube was subcultured onto nutrient and MacConkey agar.

Data set [2] in a line: pH of the litter-containing nutrient broth after incubation. The class given is physicochemical. The note with it: for pH: Example 6, tube solution after 24 hours at 37° C.; for pH of the growth media after incubation in the presence of litter: Example 4. As for the experimental part:
Two extra tubes were used for positive growth (cells only) and negative growth (no cells) growth controls. 18 ml of NB was added to each tube, and […]. The tubes were incubated for 24 hours at 37° C., after which the pH was measured and the number of tubes for each treatment showing signs of bacterial growth were counted.

“Also recorded” adds a separate entry of the source. Where a name gives a salt, the structure may show the parent alone.

For the compound `[Cl][Fe]([Cl])[Cl]` [50 mM Fe, FeCl3], in data set [1], the “Growth of Salmonella upon litter treated with one or more treatment composition components” value is on record as “Growth” and the “Growth of Salmonella upon litter treated with various concentrations of treatment composition” value was “Growth”. Besides, the pH result in data set [2] is reported as “pH 6.3”.
As to `O=C(O)CC(O)(CC(=O)O)C(=O)O` [50 mM citrate], in data set [1], the “Growth of Salmonella upon litter treated with one or more treatment composition components” value was “Growth” and the “Growth of Salmonella upon litter treated with various concentrations of treatment composition” value is listed as “Growth”. Further, the pH result in data set [2] is given as “pH 6.4”.
On to `CC(=O)O` [Acetic Acid], for which the “Growth of Salmonella upon litter treated with one or more treatment composition components” value is recorded as “Growth” in data set [1] and “completely ineffective” in data set [1] (listed as acetic acid). The “pH of the growth media after incubation in the presence of litter” value in data set [2] is listed as roughly 6.
`Cl` [HCl]: the “Growth of Salmonella upon litter treated with one or more treatment composition components” value in data set [1] is “completely ineffective; also recorded: Growth”. Also, the “pH of the growth media after incubation in the presence of litter” value in data set [2] was roughly 6.
For povidone-iodine complex [0.1% PIC], the “Growth of Salmonella in the Presence of an Iodophore” value in data set [1] is listed as “ineffective”.
Turning to povidone-iodine complex [.25% PIC], in data set [1], the “Growth of Salmonella in the Presence of an Iodophore” value is given as “Growth”.
